From patent US8552052B2, “Use of diindolylmethane-related indoles for the treatment and prevention of respiratory syncytial virus associated conditions” (BioResponse, L.L.C., priority 2004, dated 2013)
“Also recorded” adds a separate entry of the source.

Assays:
[1] = tested on: Recombinant RSV virus producing green fluorescent protein (gRSV); assay: Intracellular RSV growth, real-time fluorescence of GFP-producing RSV (gRSV) in A549 cells; assay type: cell-based, Respiratory Syncytial Virus; conditions: cultured A549 cells; beginning 12 hours after addition of nM DIM (70, 210, 700 nM); FIG. 3
Excerpt: Levels of Intracellular RSV Growth—A real-time fluorescence measurement of live infected cells was utilized to determine the intracellular levels of RSV. Quantitation of real-time RSV growth in live cells was accomplished using a strain of RSV virus which produces florescent protein. Recombinant RSV virus producing green fluorescent protein (GFP) (‘green RSV’, abbreviated as ‘gRSV’) was kindly provided by Dr. Mark Peeples (Columbus Children's Res. Inst., Ohio). A549 cell monolayers were infected with the gRSV in the presence of indicated concentrations of DIM, and were periodically observed by fluorescence microscopy. For quantification, the fluorescence was measured in a standard plate-reader.

[2] = tested on: RSV Long strain; assay: Pulmonary histopathology in RSV infected BALB/c mice; assay type: in vivo; conditions: DIM administered orally or parenterally
Protocol: The Following Experimental BALB/c Groups and Treatment Protocol Using DIM were Studied: • 1. RSV infected positive control group, infected with RSV and injected subcutaneously (SC) once daily with DMSO/Phosphate Buffered Saline (PBS) vehicle. • 2. RSV infected, Low dose Parenteral DIM group (15 mg/kg/day), injected SC once daily with DIM suspension • 3. RSV infected, High dose DIM Group (150 mg/kg/day), injected SC once daily with DIM suspension • 4. RSV infected, orally treated DIM group (250 mg/kg/day from absorption enhanced DIM [Example 6.1]), added to powdered feed • 5. Uninfected negative control group, nasally administered vehicle only, and injected subcutaneously (SC) once daily with DMSO/PBS vehicle
Mouse treatment, infection and harvest. […]
To determine viral titer, the lung was homogenized in DMEM supplemented with 2% FBS (2 ml DMEM per 100 mg tissue) in cold. […] Multiple, 4 μm thick sections were stained with haematoxylin & eosin (H&E) and scored for cellular inflammation under light microscopy by two independent researchers. Inflammatory infiltrates were scored by enumerating the layers of inflammatory cells surrounding the vessels and bronchioles. […] A total of about 20 spaces per lung were counted for each animal. […] The concentration of cysteinyl leukotrienes conjugates in the BALF was determined by an ELISA kit following the manufacturer's protocol (R&D Systems, Minneapolis, Minn.). […]

[3] = water and lipid; cited from earlier work

For `c1ccc2c(Cc3c[nH]c4ccccc34)c[nH]c2c1` [DIM, 3,3′-diindolylmethane], the “intracellular RSV activity (growth)” value [1] is given as “reduced intracellular RSV growth; also recorded: significantly reduced”, the “severity in lung pathology” value [2] is given as “reduced severity in lung pathology” and the solubility [3] is given as “low solubility”.
